Test results reported in patent US20250250230A1, “HETEROCYCLIC COMPOUND” (TAKEDA PHARMACEUTICAL COMPANY LIMITED, priority 2022, published 2025).

Tested on: cynomolgus monkeys
Assay: Evaluation of wake-promoting effects in cynomolgus monkeys (EEG/EMG)
Type: in vivo, cynomolgus monkey
Conditions: 10 mg/kg p.o. at ZT12, time spent in wakefulness for 4 h after administration, male cynomolgus monkeys, n=2
Method: The wake-promoting effects were evaluated by measuring the electroencephalogram (EEG) and electromyogram (EMG) in cynomolgus monkeys. Under isoflurane anesthesia (0.5-5%, Pfizer Japan Inc., Tokyo, Japan), male cynomolgus monkeys (2-3 years old, Hamri Co., Ltd., Ibaraki, Japan) were surgically implanted with radio-telemetry transmitters (L03-F3, Data Sciences International Inc., MN, USA). EEG electrodes were screwed into the skull at the parietal area. EMG electrodes were implanted on the cervical muscles. After the surgery, each monkey was given penicillin (100,000 units/head, i.m., Meiji Seika Pharma Co., Ltd., Tokyo, Japan), buprenorphine (0.02 mg/kg, i.m., Otsuka Pharmaceutical Co., Ltd., Tokyo, Japan) and prednisolone (1 mg/kg, s.c., Kyoritsu Seiyaku Co., Ltd., Tokyo, Japan) daily for one week. After at least a 1-month recovery period in home cages, the monkeys were habituated to the recording chamber placed in a soundproof room. EEG and EMG signals were recorded using the telemetry system (Ponemah software, Data Sciences International Inc., MN, USA) and the signals were analyzed using SleepSign software (Kissei Comtec Co., Ltd., Nagano, Japan). After confirming long sleep in dark phase in the experimental room, we used animals to examine the wake-promoting effect of compounds. Test compounds (10 mg/kg) suspended in 0.5% methylcellulose aqueous solution, or vehicle (i.e., 0.5% methylcellulose aqueous solution) was administered orally (p.o.) to monkeys at zeitgeber time 12 (ZT12) in a volume of 5 mL/kg body weight in pre-post design (n=2). EEG and EMG recordings were performed for 4 h after the compound administration. The time spent in wakefulness for 4 h after administration (% of vehicle treatment) was calculated by using SleepSign.

For `CCS(=O)(=O)NC[C@@H]1[C@H](F)CN1C(=O)[C@@H]1C[C@@]1(F)c1ccc(F)cc1-c1c(F)cccc1F` [Example 412, N-({(2R,3R)-3-fluoro-1-[(1S,2S)-2-fluoro-2-(2′,5,6′-trifluoro[1,1′-biphenyl]-2-yl)cyclopropane-1-carbonyl]azetidin-2-yl}methyl)ethanesulfonamide], the “Wakefulness time (% of vehicle treatment) (Mean)” value was 573.33 % of vehicle treatment.

Target: T1, human orexin type 2 receptor (Homo sapiens, UniProt O43614)
T1 construct: expressed in transfected cells
T1 sequence (O43614 1-444): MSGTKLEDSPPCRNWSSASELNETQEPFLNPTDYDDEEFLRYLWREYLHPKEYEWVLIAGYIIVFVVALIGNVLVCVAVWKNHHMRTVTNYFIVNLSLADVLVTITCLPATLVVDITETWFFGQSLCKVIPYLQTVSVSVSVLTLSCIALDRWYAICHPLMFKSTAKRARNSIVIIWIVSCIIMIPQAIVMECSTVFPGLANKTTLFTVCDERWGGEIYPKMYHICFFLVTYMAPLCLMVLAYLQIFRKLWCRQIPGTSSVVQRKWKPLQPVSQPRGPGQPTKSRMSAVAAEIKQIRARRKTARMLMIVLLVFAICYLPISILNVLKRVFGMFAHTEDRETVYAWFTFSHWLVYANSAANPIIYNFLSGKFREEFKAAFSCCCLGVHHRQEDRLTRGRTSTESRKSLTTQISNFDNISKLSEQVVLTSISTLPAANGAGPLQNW
Assay: Measurement of orexin type 2 receptor agonist activity (calcium fluorescence, Fluo-4 AM, FDSS)
Type: cell-based
Conditions: test compound 3 μM; CHO cells expressing human OX2 receptor; DMSO = 0%, orexin A (human) = 100%
Method in brief: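 CHO-K1 cells stably expressing human OX2R were loaded with Fluo-4 AM (30 min 37 °C, 30 min RT) in HEPES-buffered HBSS with 0.1% BSA and probenecid. Calcium fluorescence was followed on FDSS for 2 min after compound addition; activity normalised to DMSO (0%) and 10 nM orexin A (100%).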

Point of comparison: `COC[C@H](NS(C)(=O)=O)C1CCN1C(=O)[C@@H]1C[C@@]1(F)c1ccccc1-c1c(F)cccc1F` (stereo partly drawn) [Example 419, N-[(1R)-1-{(2R)-1-[(1S,2S)-2-(2′,6′-difluoro[1,1′-biphenyl]-2-yl)-2-fluorocyclopropane-1-carbonyl]azetidin-2-yl}-2-methoxyethyl]methanesulfonamide, or N-[(1R)-1-{(2S)-1-[(1S,2S)-2-(2′,6′-difluoro[1,1′-biphenyl]-2-yl)-2-fluorocyclopropane-1-carbonyl]azetidin-2-yl}-2-methoxyethyl]methanesulfonamide], “OX2R agonist activity (3 μM, %)” value 104%. Against it:
- CCS(=O)(=O)NC[C@@H]1[C@H](F)CN1C(=O)[C@@H]1C[C@@]1(F)c1ccc(F)cc1-c1c(F)cccc1F [Example 412, N-({(2R,3R)-3-fluoro-1-[(1S,2S)-2-fluoro-2-(2′,5,6′-trifluoro[1,1′-biphenyl]-2-yl)cyclopropane-1-carbonyl]azetidin-2-yl}methyl)ethanesulfonamide] — higher, 111%
- CS(=O)(=O)NC[C@H]1CCN1C(=O)[C@@H]1C[C@@]1(F)c1ccccc1-c1c(F)cccc1F [Example 371, N-({(2R)-1-[(1S,2S)-2-(2′,6′-difluoro[1,1′-biphenyl]-2-yl)-2-fluorocyclopropane-1-carbonyl]azetidin-2-yl}methyl)methanesulfonamide] — lower, 103%
- CS(=O)(=O)NC[C@H]1CCN1C(=O)[C@@H]1C[C@H]1c1ccccc1-c1c(F)cccc1F [Example 370, N-({(2R)-1-[(1R,2R)-2-(2′,6′-difluoro[1,1′-biphenyl]-2-yl)cyclopropane-1-carbonyl]azetidin-2-yl}methyl)methanesulfonamide] — lower, 84%
- C[C@]1(NS(C)(=O)=O)CCN(C(=O)[C@@H]2C[C@H]2c2ccccc2-c2c(F)cccc2F)C1 (mixture of isomers) [Example 286, a mixture of N-{(3R)-1-[(1R,2R)-2-(2′,6′-difluoro[1,1′-biphenyl]-2-yl)cyclopropane-1-carbonyl]-3-methylpyrrolidin-3-yl}methanesulfonamide and N-{(3S)-1-[(1R,2R)-2-(2′,6′-difluoro[1,1′-biphenyl]-2-yl)cyclopropane-1-carbonyl]-3-methylpyrrolidin-3-yl}methanesulfonamide] — lower, 96%
- C[C@@H]1CN(C(=O)[C@@H]2C[C@@]2(F)c2ccc(F)cc2-c2c(F)cccc2F)[C@@H]1CNS(C)(=O)=O [Example 386, N-({(2S,3R)-1-[(1S,2S)-2-fluoro-2-(2′,5,6′-trifluoro[1,1′-biphenyl]-2-yl)cyclopropane-1-carbonyl]-3-methylazetidin-2-yl}methyl)methanesulfonamide] — lower, 98%
- CS(=O)(=O)NC1CCN(C(=O)C2CC2c2ccccc2-c2ccc(F)cc2F)C1 (racemic) [Example 10, a mixture of rac-N-{(3R)-1-[(1R,2R)-2-(2′,4′-difluoro[1,1′-biphenyl]-2-yl)cyclopropane-1-carbonyl]pyrrolidin-3-yl}methanesulfonamide and rac-N-{(3S)-1-[(1R,2R)-2-(2′,4′-difluoro[1,1′-biphenyl]-2-yl)cyclopropane-1-carbonyl]pyrrolidin-3-yl}methanesulfonamide] — lower, 80%
- CN(C)S(=O)(=O)NC1CCCCN(C(=O)C2CC2c2ccccc2-c2c(F)cccc2F)C1 (racemic) [Example 162, a mixture of rac-N′-{(3R)-1-[(1R,2R)-2-(2′,6′-difluoro[1,1′-biphenyl]-2-yl)cyclopropane-1-carbonyl]azepan-3-yl}-N,N-dimethylsulfuric diamide and rac-N′-{(3S)-1-[(1R,2R)-2-(2′,6′-difluoro[1,1′-biphenyl]-2-yl)cyclopropane-1-carbonyl]azepan-3-yl}-N,N-dimethylsulfuric diamide] — higher, 106%
- Cc1cc(-c2c(F)cccc2F)c(C2CC2C(=O)N2CCCC(NS(C)(=O)=O)C2)cn1 (racemic) [Example 267, a mixture of rac-N-[(3R)-1-{(1R,2R)-2-[4-(2,6-difluorophenyl)-6-methylpyridin-3-yl]cyclopropane-1-carbonyl}piperidin-3-yl]methanesulfonamide and rac-N-[(3S)-1-{(1R,2R)-2-[4-(2,6-difluorophenyl)-6-methylpyridin-3-yl]cyclopropane-1-carbonyl}piperidin-3-yl]methanesulfonamide] — lower, 87%
- CC(=O)[C@@H]1CN(C(=O)[C@@H]2C[C@@]2(F)c2ccccc2-c2c(F)cccc2F)[C@H]1CNS(C)(=O)=O [Example 406, N-({(2R,3R)-3-acetyl-1-[(1S,2S)-2-(2′,6′-difluoro[1,1′-biphenyl]-2-yl)-2-fluorocyclopropane-1-carbonyl]azetidin-2-yl}methyl)methanesulfonamide] — lower, 50%
- C[C@@H]1CN(C(=O)C2CC2(F)c2c(F)cccc2-c2c(F)cccc2F)[C@@H]1CNS(C)(=O)=O (stereo partly drawn) [Example 395, N-({(2S,3R)-1-[(1R,2R)-2-fluoro-2-(2′,3,6′-trifluoro[1,1′-biphenyl]-2-yl)cyclopropane-1-carbonyl]-3-methylazetidin-2-yl}methyl)methanesulfonamide, or N-({(2S,3R)-1-[(1S,2S)-2-fluoro-2-(2′,3,6′-trifluoro[1,1′-biphenyl]-2-yl)cyclopropane-1-carbonyl]-3-methylazetidin-2-yl}methyl)methanesulfonamide] — lower, 99%
- CS(=O)(=O)NC[C@@H]1CCN1C(=O)[C@@H]1C[C@H]1c1ccccc1-c1c(F)ccc(F)c1F [Example 408, N-({(2S)-1-[(1R,2R)-2-(2′,3′,6′-trifluoro[1,1′-biphenyl]-2-yl)cyclopropane-1-carbonyl]azetidin-2-yl}methyl)methanesulfonamide] — lower, 73%
- CS(=O)(=O)NC[C@@H]1[C@H](CO)CN1C(=O)[C@@H]1C[C@@]1(F)c1ccccc1-c1c(F)cccc1F [Example 384, N-{[(2S,3R)-1-[(1S,2S)-2-(2′,6′-difluoro[1,1′-biphenyl]-2-yl)-2-fluorocyclopropane-1-carbonyl]-3-(hydroxymethyl)azetidin-2-yl]methyl}methanesulfonamide] — lower, 99%
- CC1C(C(=O)N2CCC[C@H](NS(C)(=O)=O)C2)C1c1ccccc1-c1c(F)cccc1F (mixture of isomers) [Example 305, a mixture of N-{(3S)-1-[(1R,2R,3S)-2-(2′,6′-difluoro[1,1′-biphenyl]-2-yl)-3-methylcyclopropane-1-carbonyl]piperidin-3-yl}methanesulfonamide and N-{(3S)-1-[(1S,2S,3R)-2-(2′,6′-difluoro[1,1′-biphenyl]-2-yl)-3-methylcyclopropane-1-carbonyl]piperidin-3-yl}methanesulfonamide] — lower, 85%
- CS(=O)(=O)N[C@H]1CCCN(C(=O)C2CC2(F)c2ccccc2-c2c(F)cccc2F)C1 (single isomer, unassigned) [Example 306, N-{(3S)-1-[(1S,2S)-2-(2′,6′-difluoro [1,1′-biphenyl]-2-yl)-2-fluorocyclopropane-1-carbonyl]piperidin-3-yl}methanesulfonamide, or N-{(3S)-1-[(1R,2R)-2-(2′,6′-difluoro[1,1′-biphenyl]-2-yl)-2-fluorocyclopropane-1-carbonyl]piperidin-3-yl}methanesulfonamide] — lower, 93%
- CS(=O)(=O)NC1CCCN(C(=O)C2CC2c2ccccc2-c2c(F)cccc2F)C1 (racemic) [Example 39, a mixture of rac-N-{(3R)-1-[(1R,2R)-2-(2′,6′-difluoro[1,1′-biphenyl]-2-yl)cyclopropane-1-carbonyl]piperidin-3-yl}methanesulfonamide and rac-N-{(3S)-1-[(1R,2R)-2-(2′,6′-difluoro[1,1′-biphenyl]-2-yl)cyclopropane-1-carbonyl]piperidin-3-yl}methanesulfonamide] — lower, 102%
